We go through one compound from patent US20040204577A1, “Novel peptide-forming enzyme gene” (Ajinomoto Co., Inc., priority 2003, published 2004).

Each structure is given as a SMILES string. Where a SMILES comes first, the peptide text is derived from it.

Assay [1] relates to SP-Sepharose HP fraction enzyme. Kind of assay: Production of L-alanyl-L-glutamine using enzyme fraction of Sphingobacterium sp. The note with it: 10 μl fraction (about 27 U/ml) + 90 μl buffer with 111 mM L-alanine methyl ester hydrochloride, 222 mM L-glutamine; pH 9.0, 25° C., 120 minutes. Type of assay: biochemical. As for the experimental part: The following procedure after centrifugation was carried out either on ice or at 4° C. Sphingobacterium sp. strain FERM BP-8124 (Depositary institution: the independent administrative corporation, National Institute of Advanced Industrial Science and Technology, International Patent Organism Depositary, Address of depositary institution: Chuo Dai-6, 1-1 Higashi 1-Chome, Tsukuba-shi, Ibaraki-ken, Japan, International deposit date: Jul. 22, 2002) was cultured in the same manner as Example 21, and the microbial cells were collected by centrifugation (10,000 rpm, 15 minutes). After washing 2 g of microbial cells with 20 mM Tris-HCl buffer (pH 7.6), they were suspended in 8 ml of the same buffer and subjected to ultrasonic crushing treatment for 45 minutes at 195 W. This ultrasonic crushed suspension was then centrifuged (10,000 rpm, 30 minutes) to remove the crushed cell fragments and obtain a supernatant. This supernatant was dialyzed overnight against 20 mM Tris-HCl buffer (pH 7.6) followed by removal of the insoluble fraction by ultracentrifugation (50,000 rpm, 30 minutes) to obtain a soluble fraction in the form of the supernatant liquid. The resulting soluble fraction was applied to a Q-Sepharose HP column (manufactured by Amersham) pre-equilibrated with Tris-HCl buffer (pH 7.6), and the active fraction was collected from the non-adsorbed fraction. […]

For assay [2], the system named is enzyme derived from Sphingobacterium sp. strain FERM BP-8124 (SP-Sepharose HP fraction enzyme). The assay is described as follows: Enzyme substrate specificity (11), (12): peptide production. Type of assay: biochemical. The note with it: amides and methylamine; carboxy component 100 mM, amine component 150 mM, 0.33 units enzyme, pH 9.0, 25° C., 1.5 hours. The method, boiled down:
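Peptide and oligopeptide formation catalysed by SP-Sepharose HP-fraction enzyme from Sphingobacterium sp. FERM BP-8124; carboxy components used as hydrochloride salts, 0.1% Tween-80 final added with L-Tyr-OMe. Products quantified; "+" denotes detected but unquantified (no standard), "tr" trace.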

For the compound `C[C@H](N)C(=O)N[C@@H](CCC(N)=O)C(=O)O` [L-Ala-L-Gln, L-alanyl-L-glutamine] (H-Ala-Gln-OH), in assay [1], the “L-alanyl-L-glutamine formed, enzyme-added lot” value is 73 mM. For the same compound, the “Produced peptide (Table 15-4)” value in assay [2] worked out at 0.3 mM.
